This is an account of results in ChEMBL document CHEMBL1201862, “PubChem BioAssay data set” (2004).

Molecules are shown by their SMILES. Activity calls are given as the source filed them.

In experiment [1] the target is T1, Interleukin-8 (Homo sapiens, UniProt P10145).
T1 sequence (P10145 whole entry): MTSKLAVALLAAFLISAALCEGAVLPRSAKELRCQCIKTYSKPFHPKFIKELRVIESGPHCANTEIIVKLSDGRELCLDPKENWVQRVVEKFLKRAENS
The experiment is described as follows: Dose Response confirmation of uHTS small molecule hits for cystic fibrosis induced NFkb Inhibitors in a PAF-induced IL8 counterscreen. It counts as functional. Conditions: read-out: IC50_Mean.

Experiment [2] deals with T1, Interleukin-8. In words: Dose Response confirmation of uHTS small molecule hits for cystic fibrosis induced NFkb Inhibitors in a TNFa-induced IL8 counterscreen. Conditions: read-out: IC50_Mean. The class given is functional.
Experiment [3] can be described thus: Luminescence-based cell-based high throughput dose response assay to identify activators of the DAF-12 from the parasite S. stercoralis (ssDAF-12). The class given is functional.
The target of experiment [4] is T2, Oxysterols receptor LXR-beta (Homo sapiens, UniProt P55055).
T2 sequence (P55055 whole entry): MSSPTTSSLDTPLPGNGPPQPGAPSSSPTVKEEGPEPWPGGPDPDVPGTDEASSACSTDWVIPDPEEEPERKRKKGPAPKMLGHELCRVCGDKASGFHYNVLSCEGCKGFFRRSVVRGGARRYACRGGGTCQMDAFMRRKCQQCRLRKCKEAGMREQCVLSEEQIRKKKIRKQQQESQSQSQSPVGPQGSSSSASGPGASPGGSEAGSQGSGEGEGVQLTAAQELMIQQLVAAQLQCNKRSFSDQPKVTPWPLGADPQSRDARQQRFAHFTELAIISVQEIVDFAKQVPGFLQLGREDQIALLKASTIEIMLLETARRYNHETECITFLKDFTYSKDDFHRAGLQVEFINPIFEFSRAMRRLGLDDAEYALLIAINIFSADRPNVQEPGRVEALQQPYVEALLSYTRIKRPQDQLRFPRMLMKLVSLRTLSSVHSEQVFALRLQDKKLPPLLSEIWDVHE
In words: LXR agonists, Gal4 luciferase reporter, dose response, counter-screen for ssDAF-12 agonist project, cell-based, luminescence, HEK293, S. stercoralis campaign (AID 720737). It counts as functional. Conditions: read-out: IC50 (the source's name).

A further experiment concerns the target T3, Protein Tat (Human immunodeficiency virus type 1 group M subtype B (isolate HXB2)(HIV-1), UniProt P04608).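 Note: tat binding to TAR RNA read out by fluorescence polarization.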
T3 sequence (P04608 whole entry): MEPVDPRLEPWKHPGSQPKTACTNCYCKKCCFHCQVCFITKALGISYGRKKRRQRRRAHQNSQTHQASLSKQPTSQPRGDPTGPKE
The class given is functional.

A short description of experiment [5]: viability loss in THP-1 monocytes – THP-1 cells, cytotoxicity control for Vif-APOBEC3G degradation inhibitor project, dose response (AID 1117359). It counts as functional. Conditions: THP-1.
Experiment [6] is described as follows: alpha-synuclein stem-loop luciferase translation blockers – H4 neuroglioma cells, luminescence, confirmation (AID 1988). It counts as functional, cell-based.
The nature of experiment [7]: Luminescence Cell-Based Dose Response HTS to Identify Inhibitors of 5'UTR Stem-Loop Driven Prion Protein mRNA Translation in H4 Neuroglioblastoma Cells. [Related pubchem assays: 1827 (Project Summary), 1813 (Primary HTS)]. The class given is functional.
Experiment [8] in a line: Dd2 malaria parasite growth inhibition potency – SYBR Green, dry powder samples, dose response (AID 1159566).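 Note: potency for growth inhibition with lower SYBR green DNA signal.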 The class given is functional, cell-based.
Experiment [9] is described as follows: toxicity to human hepatoma HepG2 cells – cell-based, cherry-picked samples, cytotoxicity control, dose response (AID 1159577). It counts as functional.
A short description of experiment [10]: P. falciparum Dd2 growth inhibitors, dose response, SYBR Green, cherry-picked samples (AID 1159567). It counts as functional, cell-based.
A short description of experiment [11]: growth inhibition of yeast DHODH-expressing 3D7 parasites – SYBR Green, dry powder samples, dose response (AID 1159570).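 Note: parasite growth measured after 72 hours of compound exposure.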 It counts as functional, cell-based.
A short description of experiment [12]: toxicity to human HepG2 hepatoma cells – cell-based, plate reader, dry powder samples, cytotoxicity control, dose response (AID 1159569).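 Note: inhibitor potency with signal falling toward the positive control level.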 It counts as functional.
The nature of experiment [13]: growth inhibition of PfATP4-mutant resistant parasites – NITD609-resistant line, SYBR Green, dry powder, dose response (AID 1159571).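 Note: parasites synchronized at ring stage by sorbitol before testing.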 It counts as functional, cell-based.
Experiment [14] concerns the target Photoreceptor-specific nuclear receptor (Homo sapiens, UniProt Q9Y5X4). The class given is functional, cell-based.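 Note: CHO-S cells with Gal4-NCOR and VP16-NR2E3 two-hybrid luciferase reporter.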
Experiment [15] is described as follows: viability loss in HeLa cells – cytotoxicity control for MgcRacGAP inhibitor project, dose response (AID 624300). It counts as functional.
The target in experiment [16] is T4, Rac GTPase-activating protein 1 (Homo sapiens, UniProt Q9H0H5).
T4 sequence (Q9H0H5 whole entry): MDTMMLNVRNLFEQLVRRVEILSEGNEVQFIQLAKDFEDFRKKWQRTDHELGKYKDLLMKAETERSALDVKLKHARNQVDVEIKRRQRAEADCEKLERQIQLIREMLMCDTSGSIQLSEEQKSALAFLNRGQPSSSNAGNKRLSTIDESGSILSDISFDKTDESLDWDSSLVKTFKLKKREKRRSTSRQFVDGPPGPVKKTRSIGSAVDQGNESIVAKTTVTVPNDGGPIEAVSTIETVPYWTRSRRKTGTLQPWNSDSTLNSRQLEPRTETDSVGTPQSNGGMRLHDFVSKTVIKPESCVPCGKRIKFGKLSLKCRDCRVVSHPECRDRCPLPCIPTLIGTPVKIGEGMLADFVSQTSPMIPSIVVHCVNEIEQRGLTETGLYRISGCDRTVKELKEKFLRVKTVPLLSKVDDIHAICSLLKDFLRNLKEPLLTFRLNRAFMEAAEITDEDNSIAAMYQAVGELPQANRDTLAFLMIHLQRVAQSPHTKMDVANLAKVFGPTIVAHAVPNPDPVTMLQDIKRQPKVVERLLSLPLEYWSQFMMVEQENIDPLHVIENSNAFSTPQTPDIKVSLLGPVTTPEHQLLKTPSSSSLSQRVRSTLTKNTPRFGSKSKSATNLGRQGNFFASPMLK
In words: blockers of MgcRacGAP-driven Rac1 GTP hydrolysis – biochemical, ADP Hunter fluorescence, primary and confirmatory, confirmation (AID 624330). It counts as functional.

A short description of experiment [17]: A549 cell cytotoxicity, dose response, cytotoxicity control, plate reader, cherry-pick, antagonist series (AID 743412). It counts as functional, cell-based.
Experiment [18] is described as follows: blockade of melanocortin 4 receptor signaling – cell-based, plate reader, cherry pick, counter-screen for LGR2 antagonist project, dose response (AID 743444).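 Note: transfected HEK 293 cells stimulated with alpha-MSH peptide; potency of inhibitors of the alpha-MSH evoked signal.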 It counts as functional.
Experiment [19] in a line: blockers of bursicon-stimulated LGR2 cAMP reporter – cell-based, HEK293, CRE-luciferase reporter, cherry pick, set 2, dose response (AID 743343).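 Note: transfected cells were stimulated with diluted bursicon conditioned medium after compound addition.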 It counts as functional.
Experiment [20] can be described thus: OVCAR8 cell viability loss – plate reader, dry powder samples, PAX8 project, dose response (AID 743197). It counts as functional, cell-based. Conditions: OVCAR-8.
The target in another experiment is Paired box protein Pax-8 (Homo sapiens, UniProt Q06710). In words: PAX8 transcriptional activity inhibition in RMG-I – RMG-I cells, luciferase, cherry-pick, dose response (AID 687027).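 Note: luciferase reporter driven by Pax8 target thyroperoxidase promoter measured by SteadyGlo luminescence.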 The class given is functional, cell-based.
Paired box protein Pax-8, sequence (Q06710 whole entry): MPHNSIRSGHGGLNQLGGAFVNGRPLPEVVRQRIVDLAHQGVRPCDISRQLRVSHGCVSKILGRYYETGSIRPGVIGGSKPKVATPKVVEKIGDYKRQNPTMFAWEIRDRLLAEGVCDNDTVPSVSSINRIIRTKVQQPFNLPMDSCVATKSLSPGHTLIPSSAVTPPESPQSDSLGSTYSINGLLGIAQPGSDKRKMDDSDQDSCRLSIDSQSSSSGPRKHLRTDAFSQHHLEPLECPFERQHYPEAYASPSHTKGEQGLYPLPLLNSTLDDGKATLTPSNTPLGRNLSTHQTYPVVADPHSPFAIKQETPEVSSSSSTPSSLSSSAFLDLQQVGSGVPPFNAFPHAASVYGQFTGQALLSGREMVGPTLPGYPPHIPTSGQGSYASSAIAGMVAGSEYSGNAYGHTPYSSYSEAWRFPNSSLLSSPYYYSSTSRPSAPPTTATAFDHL
Experiment [21] is described as follows: toxicity toward HepG2 liver cells – cell-based, plate reader, cherry-pick, antagonist series, cytotoxicity control, dose response (AID 743416). It counts as functional.
Experiment [22] addresses T5, Fatty acid synthase (Homo sapiens, UniProt P49327). The experiment is described as follows: inhibition of human FAS-TE enzyme activity – biochemical, kinetic fluorescence intensity, dose response (AID 624326).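 Note: rate of fluorescence rise from hydrolysis of a fluorogenic O-methyl fluorescein ester substrate.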 The class given is functional.
Experiment [23] addresses T5, Fatty acid synthase. The experiment is described as follows: inhibition of human FAS-TE enzyme activity – biochemical, endpoint fluorescence intensity, uHTS hits, dose response (AID 624327).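 Note: fluorescence from hydrolysis of an O-methyl fluorescein acyl ester substrate by the enzyme.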 The class given is functional.
Experiment [24] is described as follows: HGIII-sPLA2 enzyme inhibition potency – biochemical, QFRET, IC50, dose response (AID 743457).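 Note: green fluorescence rise as the enzyme cleaves BODIPY PC-A2 in liposomes.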

T5 sequence (P49327 whole entry): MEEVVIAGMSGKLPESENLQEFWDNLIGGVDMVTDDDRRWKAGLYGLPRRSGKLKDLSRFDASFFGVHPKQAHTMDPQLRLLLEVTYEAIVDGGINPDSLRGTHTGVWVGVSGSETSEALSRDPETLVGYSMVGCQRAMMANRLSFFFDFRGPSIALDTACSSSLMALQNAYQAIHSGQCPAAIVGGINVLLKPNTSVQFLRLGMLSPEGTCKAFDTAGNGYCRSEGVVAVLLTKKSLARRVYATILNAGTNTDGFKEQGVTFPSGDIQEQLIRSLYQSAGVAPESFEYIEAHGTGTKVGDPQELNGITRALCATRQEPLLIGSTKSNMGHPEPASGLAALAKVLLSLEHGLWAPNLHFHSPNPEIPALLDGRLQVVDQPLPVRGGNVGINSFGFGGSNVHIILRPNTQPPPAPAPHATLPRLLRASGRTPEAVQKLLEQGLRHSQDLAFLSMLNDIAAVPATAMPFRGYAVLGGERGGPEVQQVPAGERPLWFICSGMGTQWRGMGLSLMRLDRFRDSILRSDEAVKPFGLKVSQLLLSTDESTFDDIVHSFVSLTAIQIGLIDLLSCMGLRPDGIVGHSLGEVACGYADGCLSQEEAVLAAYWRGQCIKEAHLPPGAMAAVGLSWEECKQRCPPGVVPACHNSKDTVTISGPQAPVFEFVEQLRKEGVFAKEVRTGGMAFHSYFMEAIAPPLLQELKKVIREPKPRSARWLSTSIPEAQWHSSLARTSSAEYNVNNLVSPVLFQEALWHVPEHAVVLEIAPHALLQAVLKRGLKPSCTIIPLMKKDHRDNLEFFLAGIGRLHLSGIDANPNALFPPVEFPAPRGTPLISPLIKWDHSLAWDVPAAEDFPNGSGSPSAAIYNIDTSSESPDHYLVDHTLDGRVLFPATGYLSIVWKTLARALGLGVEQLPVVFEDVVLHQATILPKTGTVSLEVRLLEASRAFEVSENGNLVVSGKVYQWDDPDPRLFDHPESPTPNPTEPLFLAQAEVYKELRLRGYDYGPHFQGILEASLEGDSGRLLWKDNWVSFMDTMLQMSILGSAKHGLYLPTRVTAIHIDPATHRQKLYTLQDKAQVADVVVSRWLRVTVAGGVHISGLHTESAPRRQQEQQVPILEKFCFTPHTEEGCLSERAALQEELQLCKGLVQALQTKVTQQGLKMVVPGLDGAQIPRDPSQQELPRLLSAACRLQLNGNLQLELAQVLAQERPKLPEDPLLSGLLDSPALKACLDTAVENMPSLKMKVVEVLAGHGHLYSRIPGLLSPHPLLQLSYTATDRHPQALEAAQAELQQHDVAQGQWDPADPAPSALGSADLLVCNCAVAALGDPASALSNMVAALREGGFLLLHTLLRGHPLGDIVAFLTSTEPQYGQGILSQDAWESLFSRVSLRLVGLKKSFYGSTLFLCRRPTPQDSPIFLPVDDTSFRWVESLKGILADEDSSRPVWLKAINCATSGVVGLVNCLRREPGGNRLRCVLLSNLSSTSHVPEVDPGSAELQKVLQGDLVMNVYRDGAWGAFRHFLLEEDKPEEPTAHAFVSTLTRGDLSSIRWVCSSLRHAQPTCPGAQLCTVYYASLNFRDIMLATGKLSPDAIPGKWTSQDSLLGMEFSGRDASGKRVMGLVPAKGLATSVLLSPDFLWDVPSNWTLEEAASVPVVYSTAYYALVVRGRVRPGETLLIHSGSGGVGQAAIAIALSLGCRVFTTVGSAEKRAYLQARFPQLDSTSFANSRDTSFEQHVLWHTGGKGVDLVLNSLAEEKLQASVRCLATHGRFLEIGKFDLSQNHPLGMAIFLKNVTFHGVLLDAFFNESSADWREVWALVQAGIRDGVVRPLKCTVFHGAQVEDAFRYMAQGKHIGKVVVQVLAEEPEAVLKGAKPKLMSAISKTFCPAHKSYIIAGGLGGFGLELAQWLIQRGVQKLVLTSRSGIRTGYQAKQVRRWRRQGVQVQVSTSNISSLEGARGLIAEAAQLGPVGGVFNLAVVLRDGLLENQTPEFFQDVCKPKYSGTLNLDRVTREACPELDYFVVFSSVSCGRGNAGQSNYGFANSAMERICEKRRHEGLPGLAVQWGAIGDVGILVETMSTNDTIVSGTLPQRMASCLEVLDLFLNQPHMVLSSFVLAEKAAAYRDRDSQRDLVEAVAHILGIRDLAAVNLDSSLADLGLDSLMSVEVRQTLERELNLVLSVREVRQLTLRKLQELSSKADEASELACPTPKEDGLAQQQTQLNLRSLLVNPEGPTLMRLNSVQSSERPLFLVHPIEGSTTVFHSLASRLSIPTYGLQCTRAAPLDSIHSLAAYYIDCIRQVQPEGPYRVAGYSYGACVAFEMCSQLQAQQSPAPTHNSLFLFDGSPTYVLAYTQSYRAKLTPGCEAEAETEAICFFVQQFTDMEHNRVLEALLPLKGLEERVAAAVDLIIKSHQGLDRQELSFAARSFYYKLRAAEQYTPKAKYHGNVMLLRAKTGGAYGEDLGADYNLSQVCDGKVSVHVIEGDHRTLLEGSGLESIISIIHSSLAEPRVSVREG
Photoreceptor-specific nuclear receptor, sequence (Q9Y5X4 whole entry, the tested form may be a part): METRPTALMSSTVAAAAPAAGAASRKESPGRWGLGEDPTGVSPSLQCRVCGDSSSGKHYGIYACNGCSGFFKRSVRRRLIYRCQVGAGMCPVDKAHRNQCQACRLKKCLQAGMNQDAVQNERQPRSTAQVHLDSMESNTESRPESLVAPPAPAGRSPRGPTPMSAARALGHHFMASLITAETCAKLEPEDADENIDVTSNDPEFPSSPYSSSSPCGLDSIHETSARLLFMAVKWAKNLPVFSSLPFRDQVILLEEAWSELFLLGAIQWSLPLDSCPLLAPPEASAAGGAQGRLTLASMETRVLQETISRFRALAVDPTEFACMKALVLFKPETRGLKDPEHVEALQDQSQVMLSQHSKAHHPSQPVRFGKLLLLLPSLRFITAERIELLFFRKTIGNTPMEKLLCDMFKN

`Cc1ccc(/N=C/c2cc3c(cc2O)OC(N)=C(C#N)C3c2ccccc2)cc1` (configuration not stated): the IC50 at Interleukin-8 [1] is 5.76 µM (active); at Interleukin-8 [2] it was > 79 µM (inactive).

Take `FC(F)(F)c1ccc(Oc2ccc(Cl)cc2Br)nc1`: in experiment [3], the IC50 is > 67.5 µM (inactive). Moreover, the EC50 in experiment [4] was > 67.5 µM (inactive).

With `COc1ccccc1/C=C(/CC(=O)NCc1ccccc1)c1nc2ccccc2s1`, on Protein Tat, the IC50 is > 100 µM (active).

In the case of `O=S(=O)(Nc1ccc2[nH]c(O)nc2c1)c1ccc(F)c(Cl)c1`, the CC50 in experiment [5] is > 40 µM (active).

`COc1cccc(C(=O)Cn2c(=N)n(C)c3ccccc32)c1`: in experiment [3], the IC50 is > 67.5 µM (inactive). In addition, the EC50 in experiment [6] was 6.57 µM (active); in [4], > 67.5 µM (inactive); in experiment [7] it was 17.7 µM (active).

Take `Cc1ccc(-c2ccc3c(c2)O[C@@H](CN(C)Cc2ccncc2)[C@H](C)CN([C@@H](C)CO)S3(=O)=O)cc1`: the AC50 in experiment [8] is 2.2 µM (active); in [9] it was > 39 µM (inactive); in experiment [10], 2.73 µM (active); in experiment [11] it was 2.23 µM (active); in [12] it was 24.4 µM (active); in experiment [13], 2.19 µM (active).

Take `CCC1(O)C(=O)OCc2c1cc1n(c2=O)Cc2cc3cc(O)ccc3nc2-1` (configuration not stated): the IC50 was 3 µM (active) at Interleukin-8 [1], 40.5 µM (inactive) on Interleukin-8 [2] and 4.21 µM (active) in experiment [14].

`COc1cc2c(cc1NC(=O)C(Cl)Cl)-c1ccc(NC(=O)C(Cl)Cl)cc1C2`: the 50% cytotoxic concentration (CC50) in [15] was 10.3 µM (active). Also, in experiment [16], the IC50 is 58.4 µM (active).

Turning to `C[C@@H]1CN([C@H](C)CO)C(=O)c2c(c3ccccc3n2C)-c2ccccc2CO[C@@H]1CN(C)S(=O)(=O)c1ccc(C(F)(F)F)cc1`, the AC50 in experiment [8] is 1.76 µM (active); in [17] it was 19.4 µM (active); in experiment [18] it was 35.3 µM (active); in [19] it was 25.9 µM (active); in experiment [9], > 42 µM (inactive); in experiment [20], > 70 µM (inactive). The concentration at half-maximal activity (AC50) at Paired box protein Pax-8 is 5.24 µM (active); in experiment [10], 2.41 µM (active); in experiment [21], 17.7 µM (active); in experiment [11], 3.33 µM (active); in [12], 15.1 µM (active); in [13], 2.62 µM (active).

`O=C(COC(=O)c1cccc([N+](=O)[O-])c1)NCc1cccs1`: the IC50 on Fatty acid synthase [22] was 18.7 µM (active); on Fatty acid synthase [23], 13.9 µM (active).

For `COc1cccc(C(=O)Oc2cc3c4c(c2)C(C)=CC(C)(C)N4C(=O)C3=O)c1`, the IC50 in experiment [24] was 43.2 µM (inactive).

On to `Cc1nc(NC(=O)c2c(-c3ccccc3Cl)noc2C)sc1C`, for which the IC50 in [14] was 4.19 µM (active).
